These results are taken from patent publication US7300946B2, “N-(substituted arylmethyl)-4-(disubstituted methyl) piperidines and pyridines” (Bayer CropScience AG, priority 2002, dated 2007).

The subject of the assay is tobacco budworm (Heliothis virescens [Fabricius]). The experiment in a line: surface-treated diet test against the tobacco budworm. The format is in vivo. Particulars: tobacco budworm second instar larvae, surface-treated diet, 0.25 millimoles of candidate insecticide on the surface of the diet, five-day exposure; for Percent Mortality: compared to total number of insects infested; for Percent Growth Inhibition: inhibition of insect weight relative to untreated controls. Summed up:
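Wheat germ artificial diet surface-treated with 40 µL of 50 mM DMSO stock diluted 1:7 in 1:1 water/acetone (0.25 millimolar on diet), or sub-multiples for rate tests. One second-instar larva per well, 25° C, 60% RH, 5 days; percent weight inhibition vs DMSO controls and percent mortality.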

In the case of `Cn1nnc(-c2ccc(CN3CCC(C(NC(=O)Nc4ccc(C(F)(F)F)cc4)c4ccc(OC(F)(F)F)cc4)CC3)cc2)n1` (stereo not shown) [Compound 344], the “Percent Mortality” value worked out at 100% and the “Percent Growth Inhibition” value was 100%.

`Cn1nnc(-c2ccc(CN3CCC(C(NC(=O)Nc4ccc(OC(F)(F)F)cc4)c4ccc(OC(F)(F)F)cc4)CC3)cc2)n1` (stereo not shown) [Compound 345]: the “Percent Mortality” value is reported as 100% and the “Percent Growth Inhibition” value worked out at 100%.

Turning to `Cn1nnc(-c2ccc(CN3CCC(C(NC(=O)Nc4ccc([N+](=O)[O-])cc4)c4ccc(OC(F)(F)F)cc4)CC3)cc2)n1` (stereo not shown) [Compound 346], the “Percent Mortality” value was determined as 100% and the “Percent Growth Inhibition” value was 100%.

As for `Cn1nnc(-c2ccc(CN3CCC(C(NC(=O)Oc4ccccc4Cl)c4ccc(OC(F)(F)F)cc4)CC3)cc2)n1` (stereo not shown) [Compound 347], the “Percent Mortality” value is 83% and the “Percent Growth Inhibition” value came out at 100%.

As for `Cn1nnc(-c2ccc(CN3CCC(C(NC(=O)Oc4cccc(Cl)c4)c4ccc(OC(F)(F)F)cc4)CC3)cc2)n1` (stereo not shown) [Compound 348], the “Percent Mortality” value is listed as 100% and the “Percent Growth Inhibition” value turned out to be 100%.

Regarding `Cn1nnc(-c2ccc(CN3CCC(C(NC(=O)Oc4ccc(Cl)cc4)c4ccc(OC(F)(F)F)cc4)CC3)cc2)n1` (stereo not shown) [Compound 349], the “Percent Mortality” value was 100% and the “Percent Growth Inhibition” value worked out at 100%.

`Cn1nnc(-c2ccc(CN3CCC(C(NC(=O)Oc4ccc(Br)cc4)c4ccc(OC(F)(F)F)cc4)CC3)cc2)n1` (stereo not shown) [Compound 350]: the “Percent Mortality” value stood at 100% and the “Percent Growth Inhibition” value is 100%.

On to `Cn1nnc(-c2ccc(CN3CCC(C(NC(=O)Oc4ccccc4F)c4ccc(OC(F)(F)F)cc4)CC3)cc2)n1` (stereo not shown) [Compound 351], for which the “Percent Mortality” value came to 50% and the “Percent Growth Inhibition” value is 100%.

For `Cn1nnc(-c2ccc(CN3CCC(C(NC(=O)Oc4cccc(F)c4)c4ccc(OC(F)(F)F)cc4)CC3)cc2)n1` (stereo not shown) [Compound 352], the “Percent Mortality” value worked out at 83% and the “Percent Growth Inhibition” value was 100%.

With `Cn1nnc(-c2ccc(CN3CCC(C(NC(=O)Oc4ccc(F)cc4)c4ccc(OC(F)(F)F)cc4)CC3)cc2)n1` (stereo not shown) [Compound 353], the “Percent Mortality” value is 17% and the “Percent Growth Inhibition” value is 87%.

Take `Cn1nnc(-c2ccc(CN3CCC(C(NC(=O)Oc4ccc(I)cc4)c4ccc(OC(F)(F)F)cc4)CC3)cc2)n1` (stereo not shown) [Compound 354]: the “Percent Mortality” value is given as 100% and the “Percent Growth Inhibition” value came to 100%.

Take `Cc1ccc(OC(=O)NC(c2ccc(OC(F)(F)F)cc2)C2CCN(Cc3ccc(-c4nnn(C)n4)cc3)CC2)cc1` (stereo not shown) [Compound 355]: the “Percent Mortality” value is listed as 100% and the “Percent Growth Inhibition” value is reported as 100%.

Take `COc1ccc(OC(=O)NC(c2ccc(OC(F)(F)F)cc2)C2CCN(Cc3ccc(-c4nnn(C)n4)cc3)CC2)cc1` (stereo not shown) [Compound 356]: the “Percent Mortality” value is 100% and the “Percent Growth Inhibition” value was 100%.

Regarding `Cn1nnc(-c2ccc(CN3CCC(C(NC(=O)Oc4ccc(OC(F)(F)F)cc4)c4ccc(OC(F)(F)F)cc4)CC3)cc2)n1` (stereo not shown) [Compound 357], the “Percent Mortality” value turned out to be 100% and the “Percent Growth Inhibition” value is 100%.

For `Cn1nnc(-c2ccc(CN3CCC(C(NC(=O)Oc4ccc([N+](=O)[O-])cc4)c4ccc(OC(F)(F)F)cc4)CC3)cc2)n1` (stereo not shown) [Compound 358], the “Percent Mortality” value is given as 83% and the “Percent Growth Inhibition” value is 99%.

As to `O=C(Nc1ccc(Cl)cc1)OC(c1ccc(C(F)(F)F)cc1)C1CC[N+]([O-])(Cc2ccc(Oc3ccccn3)cc2)CC1` (stereo not shown) [Compound 395, N-(4-chlorophenyl)({1-[(4-(2-pyridyloxy)phenyl)methyl](4-(1-oxypiperidyl))}[4-(trifluoromethyl)phenyl]methoxy)carboxamide], the “Percent Mortality” value turned out to be 100% and the “Percent Growth Inhibition” value came to 100%.

On to `O=C(Nc1ccc(Cl)c(Cl)c1)OC(c1ccc(C(F)(F)F)cc1)C1CC[N+]([O-])(Cc2ccc(Oc3ccccn3)cc2)CC1` (stereo not shown) [Compound 396], for which the “Percent Mortality” value is 100% and the “Percent Growth Inhibition” value is 100%.

In the case of `O=C(Nc1cc(F)cc(F)c1)OC(c1ccc(C(F)(F)F)cc1)C1CC[N+]([O-])(Cc2ccc(Oc3ccccn3)cc2)CC1` (stereo not shown) [Compound 397], the “Percent Mortality” value was found to be 100% and the “Percent Growth Inhibition” value worked out at 100%.

`O=C(Nc1ccc(C(F)(F)F)cc1)OC(c1ccc(C(F)(F)F)cc1)C1CC[N+]([O-])(Cc2ccc(Oc3ccccn3)cc2)CC1` (stereo not shown) [Compound 398]: the “Percent Mortality” value was found to be 100% and the “Percent Growth Inhibition” value stood at 100%.

Take `Cn1nnc(-c2ccc(C[N+]3([O-])CCC(C(OC(=O)Nc4ccc(Cl)cc4)c4ccc(OC(F)(F)F)cc4)CC3)cc2)n1` (stereo not shown) [Compound 399]: the “Percent Mortality” value was found to be 100% and the “Percent Growth Inhibition” value worked out at 100%.

Regarding `Cn1nnc(-c2ccc(C[N+]3([O-])CCC(C(OC(=O)Nc4ccc(F)cc4)c4ccc(OC(F)(F)F)cc4)CC3)cc2)n1` (stereo not shown) [Compound 400], the “Percent Mortality” value is listed as 100% and the “Percent Growth Inhibition” value came to 100%.

Turning to `CCn1nnc(-c2ccc(C[N+]3([O-])CCC(C(OC(=O)Nc4ccc(F)cc4)c4ccc(OC(F)(F)F)cc4)CC3)cc2)n1` (stereo not shown) [Compound 401], the “Percent Mortality” value came out at 100% and the “Percent Growth Inhibition” value is recorded as 100%.

As for `Cn1nnc(-c2ccc(C[N+]3([O-])CCC(C(OC(=O)Nc4ccc(C(F)(F)F)cc4)c4ccc(OC(F)(F)F)cc4)CC3)cc2)n1` (stereo not shown) [Compound 402], the “Percent Mortality” value came to 100% and the “Percent Growth Inhibition” value was determined as 100%.

For `Cn1nnc(-c2ccc(C[N+]3([O-])CCC(C(OC(=O)Nc4ccc(OC(F)(F)F)cc4)c4ccc(OC(F)(F)F)cc4)CC3)cc2)n1` (stereo not shown) [Compound 404], the “Percent Mortality” value is on record as 100% and the “Percent Growth Inhibition” value was found to be 100%.

`CCn1nnc(-c2ccc(C[N+]3([O-])CCC(C(OC(=O)Nc4ccc(OC(F)(F)F)cc4)c4ccc(OC(F)(F)F)cc4)CC3)cc2)n1` (stereo not shown) [Compound 405]: the “Percent Mortality” value is listed as 100% and the “Percent Growth Inhibition” value amounted to 100%.

Take `CCCNC(=O)OC(c1ccc(C(F)(F)F)cc1)C1CCN(Cc2ccc(Oc3ccccn3)cc2)CC1` (stereo not shown) [Compound 427]: the “Percent Mortality” value stood at 33% and the “Percent Growth Inhibition” value was 100%.

On to `CC(C)NC(=O)OC(c1ccc(C(F)(F)F)cc1)C1CCN(Cc2ccc(Oc3ccccn3)cc2)CC1` (stereo not shown) [Compound 429], for which the “Percent Mortality” value turned out to be 100% and the “Percent Growth Inhibition” value came to 100%.

Take `O=C(NC1CCCCC1)OC(c1ccc(C(F)(F)F)cc1)C1CCN(Cc2ccc(Oc3ccccn3)cc2)CC1` (stereo not shown) [Compound 432]: the “Percent Mortality” value is given as 100% and the “Percent Growth Inhibition” value turned out to be 100%.

For `CCCS(=O)(=O)NC(c1ccc(OC(F)(F)F)cc1)C1CCN(Cc2ccc(-c3nnn(C)n3)cc2)CC1` (stereo not shown) [Compound 433, [(1-{[4-(2-methyl(1,2,3,4-tetraazol-5-yl))phenyl]methyl}(4-piperidyl))[4-(trifluoromethoxy)phenyl]methyl]propylsulfonylamide], the “Percent Mortality” value worked out at 100% and the “Percent Growth Inhibition” value stood at 100%.
